Assay results from patent US20090131481A1, “Transcription Factor Modulating Compounds and Methods of Use Thereof” (Paratek Pharmaceuticals, Inc., published 2009).
Like-named read-outs stand apart in the source and are kept apart here.

Legend:
[1] = target: T1, ExsA (Pseudomonas aeruginosa, UniProt P26993); test: Chemiluminescence-based ExsA-DNA binding assay; parameters: species or system P. aeruginosa
T1 construct: made in house
T1 sequence (P26993 1-278): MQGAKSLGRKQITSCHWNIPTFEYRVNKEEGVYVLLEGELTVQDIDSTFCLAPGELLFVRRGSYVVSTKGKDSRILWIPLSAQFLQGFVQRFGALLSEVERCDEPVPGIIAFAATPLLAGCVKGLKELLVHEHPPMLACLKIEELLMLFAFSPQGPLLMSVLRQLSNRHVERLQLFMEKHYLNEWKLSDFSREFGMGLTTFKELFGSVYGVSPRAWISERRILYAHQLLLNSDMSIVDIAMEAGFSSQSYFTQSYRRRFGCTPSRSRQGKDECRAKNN

[2] = target: LcrF (VirF) (Yersinia pestis, UniProt P28808); test: biochemical; assay type: binding, Y. pseudotuberculosis
[3] = target: T2, SlyA (Escherichia coli, UniProt P0A8W2); test: biochemical; assay type: binding, E. coli
T2 sequence (P0A8W2 1-144): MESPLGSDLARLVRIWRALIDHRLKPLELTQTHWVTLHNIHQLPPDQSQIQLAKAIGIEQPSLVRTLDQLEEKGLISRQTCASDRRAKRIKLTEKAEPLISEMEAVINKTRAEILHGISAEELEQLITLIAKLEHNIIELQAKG

[4] = test system: Y. pseudotuberculosis; test: microbe, parasite or virus in culture; settings: Yersinia pseudotuberculosis, J774, read-out: % Cytotoxicity
[5] = test system: P. aeruginosa; test: P. aeruginosa cytotoxicity whole cell assay (J774 cells, LDH release); settings: relative to vehicle treated cells infected with wild type P. aeruginosa
[6] = test system: E. coli UPEC strain C189; test: Ascending pyelonephritis model of infection (Example 3); assay type: in vivo; settings: female CD1 mice, oral dosing at infection and once a day for 4 days, 5-day infection
[7] = target: T3, SoxS (Escherichia coli, UniProt P0A9E2); test: Chemiluminescence-based SoxS-DNA binding assay; parameters: made in house; species or system E. coli; settings: for EC50: dose response analysis (footnote c), read-out: in vitro SoxS activity: concentration necessary to inhibit DNA-protein binding by 50% (EC50); for inhibition at 25 µg/mL: compound screening concentration of 25 μg/ml (footnote d)
T3 sequence (P0A9E2 1-107): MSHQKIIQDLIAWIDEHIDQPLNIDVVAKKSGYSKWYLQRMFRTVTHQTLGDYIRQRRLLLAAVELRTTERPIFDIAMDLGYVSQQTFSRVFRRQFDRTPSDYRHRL

[8] = test system: uncut plasmid DNA; test: Qualitative agarose gel DNA intercalation assay; assay type: binding; settings: 100 ng uncut plasmid DNA, compared with a known DNA intercalator
[9] = target: T3, SoxS; test: Electrophoretic mobility shift assay (EMSA) with SoxS; assay type: binding; settings: 50 ug/ml compound, 5 nM SoxS
[10] = Table 7, cell-free system, read-out: ExsA EC50
[11] = Table 11, subsequent assay, read-out: P. aeruginosa ExsA EC50
[12] = EC50 for inhibition of LcrF(VirF)-DNA binding
[13] = Y. pseudotuberculosis VirF EC50
[14] = compound screening concentration of 50 μg/ml (footnote b), read-out: in vitro SoxS activity: percent inhibition of DNA-protein binding
[15] = read-out: % Inhibition (SoxS binding to DNA)
[16] = read-out: in vitro SoxS activity: percent inhibition of DNA-protein binding

Sequence of LcrF (VirF) (P28808 whole entry, looked up): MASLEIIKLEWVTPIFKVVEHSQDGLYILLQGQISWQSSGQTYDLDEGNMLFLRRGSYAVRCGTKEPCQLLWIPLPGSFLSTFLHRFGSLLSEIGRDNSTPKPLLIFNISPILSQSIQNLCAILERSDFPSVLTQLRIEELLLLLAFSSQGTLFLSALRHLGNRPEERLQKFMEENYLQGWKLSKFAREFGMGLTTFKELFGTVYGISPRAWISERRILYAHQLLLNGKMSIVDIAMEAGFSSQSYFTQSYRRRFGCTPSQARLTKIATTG

Compound: O=C(/C=C/c1ccc(F)cc1F)Nc1ccc(-c2nc3ccc([N+](=O)[O-])cc3n2O)cc1 [V]
- EC50 [1, 10]: < 10 µM
- EC50 [1, 11]: < 5 µM
- EC50 [2, 12]: < 10 µM
- EC50 [2, 13]: < 5 µM
- EC50 [3]: > 15.1 µM

Compound: Cc1ccc(/C=C/C(=O)Nc2ccc(-c3nc4ccc([N+](=O)O)cc4n3O)cc2)cc1 [S]
- EC50 [1, 10]: < 10 µM
- EC50 [1, 11]: < 5 µM
- EC50 [2, 12]: < 10 µM
- EC50 [2, 13]: < 5 µM
- EC50 [3]: > 15.1 µM

Compound: CCc1cc(-c2nc3ccc([N+](=O)[O-])cc3n2O)ccc1NC(=O)/C=C/c1ccc(C)cc1 [DP]
- EC50 [1, 11]: 5.1 to 15 µM
- activity at 50 µg/mL [4]: < 75%
- EC50 [2, 13]: < 5 µM
- EC50 [3]: > 15.1 µM
- Cytotoxicity at 50 μg/mL Pseudomonas [5]: * (reduced P. aeruginosa cytotoxicity to 99-75% of untreated, wild type levels at 50 mg/mL)

Compound: COc1cc(F)ccc1C(=O)Nc1ccc(-c2nc3ccc([N+](=O)[O-])cc3n2O)cc1 [DE]
- EC50 [1, 11]: < 5 µM
- activity at 50 µg/mL [4]: 75 to 99%
- EC50 [2, 13]: < 5 µM
- EC50 [3]: > 15.1 µM
- Cytotoxicity at 50 μg/mL Pseudomonas [5]: * (reduced P. aeruginosa cytotoxicity to 99-75% of untreated, wild type levels at 50 mg/mL)

Compound: Cc1ccc(-c2nc3ccc([N+](=O)[O-])cc3n2O)o1 [GC]
- Efficacy (log10 decrease in the CFU/g kidney tissue) [6]: ** (exhibited a 1.1-2.0 log decrease in CFU/g)
- inhibition at 50 µg/mL [7, 14]: 30 to 69%

Compound: Cc1ccc(C(=O)Nc2ccc(-c3nc4ccc([N+](=O)[O-])cc4n3O)cc2)cc1 [D]
- EC50 [7]: 1 to 4.9 µM
- EC50 [1, 10]: < 10 µM
- activity at 50 µg/mL [4]: < 75%
- EC50 [2, 12]: 10 to 25 µM

Compound: O=C(O)Cn1c(-c2nc3ccc([N+](=O)[O-])cc3n2O)nc2ccccc21 [BS]
- Efficacy (log10 decrease in the CFU/g kidney tissue) [6]: *** (exhibited a 0-1.0 log decrease in CFU/g)
- EC50 [7]: 1 to 4.9 µM

Compound: O=C(/C=C/c1ccc(F)cc1)Nc1ccc(-c2nc3ncc([N+](=O)[O-])cc3n2O)c(F)c1 [EH]
- EC50 [1, 11]: < 5 µM
- activity at 50 µg/mL [4]: < 75%
- EC50 [2, 13]: < 5 µM
- EC50 [3]: > 15.1 µM
- Cytotoxicity at 50 μg/mL Pseudomonas [5]: * (reduced P. aeruginosa cytotoxicity to 99-75% of untreated, wild type levels at 50 mg/mL)

Compound: O=C(Nc1ccc(-c2nc3ccc([N+](=O)[O-])cc3n2O)cc1)c1ccccc1 [A]
- inhibition at 50 µg/mL [7, 15]: > 70%
- EC50 [1, 10]: 10 to 25 µM
- EC50 [2, 12]: 10 to 25 µM

Compound: O=C(O)c1cccc(-c2nc3ccc([N+](=O)[O-])cc3n2O)c1 [BU]
- Efficacy (log10 decrease in the CFU/g kidney tissue) [6]: *** (exhibited a 0-1.0 log decrease in CFU/g)
- EC50 [7]: > 5 µM

Compound: CC(=O)c1ccc(/C=C/C(=O)Nc2ccc(-c3nc4ccc([N+](=O)[O-])cc4n3O)cc2)cc1 [AJ, (E)-3-(4-Acetyl-phenyl)-N-[4-(1-hydroxy-6-nitro-H-benzoimidazol-2-yl)-phenyl]-acrylamide]
- EC50 [1, 11]: < 5 µM
- EC50 [2, 12]: 10 to 25 µM
- EC50 [2, 13]: < 5 µM
- EC50 [3]: > 15.1 µM
- Cytotoxicity at 50 μg/mL Pseudomonas [5]: ** (reduced P. aeruginosa cytotoxicity below 75% of untreated, wild type levels at 50 mg/mL)

Compound: COc1ccc(C(=O)Nc2ccc(-c3nc4ccc([N+](=O)[O-])cc4n3O)cc2)cc1 [B]
- Efficacy (log10 decrease in the CFU/g kidney tissue) [6]: *** (exhibited a 0-1.0 log decrease in CFU/g)
- inhibition at 50 µg/mL [7, 14]: > 70%
- EC50 [1, 10]: > 25 µM
- activity at 50 µg/mL [4]: < 75%
- EC50 [2, 12]: 10 to 25 µM

Compound: O=C(Nc1ccc(-c2nc3ccc([N+](=O)[O-])cc3n2O)cc1)c1ccc(Cl)cc1 [CE]
- inhibition at 25 µg/mL [7, 16]: > 70%

Compound: O=C(O)c1ccc2nc(-c3ccccc3)n(O)c2c1 [BA]
- inhibition at 50 µg/mL [7, 15]: 0 to 29%

Compound: O=[N+]([O-])c1ccc2nc(-c3ccco3)n(O)c2c1 [AU]
- ability to intercalate DNA [8]: not found to intercalate DNA
- activity against SoxS in vitro in an EMSA [9]: very active

Compound: CN(C)c1ccc2nc(-c3ccccc3)n(O)c2c1 [BF]
- inhibition at 50 µg/mL [7, 15]: 0 to 29%

Compound: NC(=O)c1ccc2nc(-c3ccccc3)n(O)c2c1 [BB]
- inhibition at 50 µg/mL [7, 15]: 0 to 29%
- activity against SoxS in vitro in an EMSA [9]: moderately active

Compound: O=[N+]([O-])c1ccc2nc(-c3ccccc3)n(O)c2c1 [GB]
- inhibition at 50 µg/mL [7, 15]: 30 to 69%

Compound: O=[N+]([O-])c1ccc2nc(-c3ccccc3)n(OCCO)c2c1 [AS]
- inhibition at 50 µg/mL [7, 15]: < 0%

Compound: O=[N+]([O-])c1ccc2nc(-c3ccc(Br)cc3)n(O)c2c1 [CA]
- inhibition at 50 µg/mL [7, 15]: 0 to 29%

Compound: COc1ccc(-c2nc3ccc([N+](=O)[O-])cc3n2O)cc1 [AV]
- inhibition at 50 µg/mL [7, 15]: 0 to 29%

Compound: CC(=O)Nc1cccc(-c2nc3ccc([N+](=O)[O-])cc3n2O)c1 [BT]
- inhibition at 50 µg/mL [7, 15]: 30 to 69%

Compound: O=[N+]([O-])c1ccc2nc(-c3ccc(O)cc3)n(O)c2c1 [BG]
- inhibition at 50 µg/mL [7, 15]: 30 to 69%

Compound: On1c(-c2ccccc2)nc2ccc(F)cc21 [AY]
- inhibition at 50 µg/mL [7, 15]: 0 to 29%

Compound: CN(C)c1cccc(-c2nc3ccc([N+](=O)[O-])cc3n2O)c1 [BV]
- inhibition at 50 µg/mL [7, 15]: 0 to 29%

Compound: Nc1ccccc1-c1nc2ccc([N+](=O)[O-])cc2n1O [BN]
- inhibition at 50 µg/mL [7, 15]: 0 to 29%

Compound: N#Cc1ccc2nc(-c3ccccc3)n(O)c2c1 [BC]
- inhibition at 50 µg/mL [7, 15]: 30 to 69%

Compound: CCCOn1c(-c2ccccc2)nc2ccc([N+](=O)[O-])cc21 [AR]
- inhibition at 50 µg/mL [7, 15]: < 0%

Compound: CC(=O)c1ccc2nc(-c3ccccc3)n(O)c2c1 [AW]
- inhibition at 50 µg/mL [7, 15]: 30 to 69%

Compound: CC(=O)Nc1ccccc1-c1nc2ccc([N+](=O)[O-])cc2n1O [BX]
- inhibition at 50 µg/mL [7, 15]: 30 to 69%
- ability to intercalate DNA [8]: not found to intercalate DNA

Compound: O=C(O)COn1c(-c2ccccc2)nc2ccccc21 [AQ]
- inhibition at 50 µg/mL [7, 15]: 0 to 29%

Compound: CN(C)c1ccc(-c2nc3ccc([N+](=O)[O-])cc3n2O)cc1 [BP]
- Efficacy (log10 decrease in the CFU/g kidney tissue) [6]: *** (exhibited a 0-1.0 log decrease in CFU/g)
- EC50 [7]: > 5 µM
- inhibition at 50 µg/mL [7, 15]: > 70%
- ability to intercalate DNA [8]: not found to intercalate DNA

Compound: N#Cc1ccc(C(=O)Nc2ccc(-c3nc4ccc([N+](=O)O)cc4n3O)cc2)cc1 [E]
- Efficacy (log10 decrease in the CFU/g kidney tissue) [6]: ** (exhibited a 1.1-2.0 log decrease in CFU/g)
- EC50 [1, 10]: 10 to 25 µM
- activity at 50 µg/mL [4]: < 75%
- EC50 [2, 12]: 10 to 25 µM

Compound: O=C(O)CCn1c(-c2ccccc2)nc2ccc([N+](=O)[O-])cc21 [AO]
- inhibition at 50 µg/mL [7, 15]: < 0%

Compound: O=C(Nc1ccc(-c2nc3ccc([N+](=O)[O-])cc3n2O)cc1)c1cccc(Cl)c1 [CG]
- EC50 [7]: 1 to 4.9 µM

Compound: N#Cc1ccc2nc(-c3ccc(NC(=O)/C=C/c4ccc(F)cc4)cc3)n(O)c2c1 [CM]
- EC50 [1, 11]: < 5 µM
- activity at 50 µg/mL [4]: 75 to 99%
- EC50 [2, 13]: 5.1 to 15 µM
- EC50 [3]: > 15.1 µM
- Cytotoxicity at 50 μg/mL Pseudomonas [5]: ** (reduced P. aeruginosa cytotoxicity below 75% of untreated, wild type levels at 50 mg/mL)

Compound: NC(=O)c1ccc2nc(-c3ccco3)n(O)c2c1 [BK]
- activity against SoxS in vitro in an EMSA [9]: lacked activity

Compound: NCCOn1c(-c2ccccc2)nc2ccc([N+](=O)[O-])cc21 [BE]
- inhibition at 50 µg/mL [7, 15]: < 0%

Compound: COn1c(-c2ccccc2)nc2ccc([N+](=O)[O-])cc21 [BR]
- inhibition at 50 µg/mL [7, 15]: 0 to 29%

Compound: CC(C)(C)C(=O)Nc1ccc(-c2nc3ccc([N+](=O)[O-])cc3n2O)cc1 [CK]
- Efficacy (log10 decrease in the CFU/g kidney tissue) [6]: *** (exhibited a 0-1.0 log decrease in CFU/g)
- inhibition at 25 µg/mL [7, 16]: > 70%
